{"source": "ChEMBL document CHEMBL4665902", "about": "“Novel Heteroaryl Compounds for Treating Huntington's Disease” (ACS Med Chem Lett, 2020)", "note": "pIC50: −log10 of the molar value."}
{"target": "Huntingtin (Homo sapiens, UniProt P42858)", "sequence (P42858 whole entry)": "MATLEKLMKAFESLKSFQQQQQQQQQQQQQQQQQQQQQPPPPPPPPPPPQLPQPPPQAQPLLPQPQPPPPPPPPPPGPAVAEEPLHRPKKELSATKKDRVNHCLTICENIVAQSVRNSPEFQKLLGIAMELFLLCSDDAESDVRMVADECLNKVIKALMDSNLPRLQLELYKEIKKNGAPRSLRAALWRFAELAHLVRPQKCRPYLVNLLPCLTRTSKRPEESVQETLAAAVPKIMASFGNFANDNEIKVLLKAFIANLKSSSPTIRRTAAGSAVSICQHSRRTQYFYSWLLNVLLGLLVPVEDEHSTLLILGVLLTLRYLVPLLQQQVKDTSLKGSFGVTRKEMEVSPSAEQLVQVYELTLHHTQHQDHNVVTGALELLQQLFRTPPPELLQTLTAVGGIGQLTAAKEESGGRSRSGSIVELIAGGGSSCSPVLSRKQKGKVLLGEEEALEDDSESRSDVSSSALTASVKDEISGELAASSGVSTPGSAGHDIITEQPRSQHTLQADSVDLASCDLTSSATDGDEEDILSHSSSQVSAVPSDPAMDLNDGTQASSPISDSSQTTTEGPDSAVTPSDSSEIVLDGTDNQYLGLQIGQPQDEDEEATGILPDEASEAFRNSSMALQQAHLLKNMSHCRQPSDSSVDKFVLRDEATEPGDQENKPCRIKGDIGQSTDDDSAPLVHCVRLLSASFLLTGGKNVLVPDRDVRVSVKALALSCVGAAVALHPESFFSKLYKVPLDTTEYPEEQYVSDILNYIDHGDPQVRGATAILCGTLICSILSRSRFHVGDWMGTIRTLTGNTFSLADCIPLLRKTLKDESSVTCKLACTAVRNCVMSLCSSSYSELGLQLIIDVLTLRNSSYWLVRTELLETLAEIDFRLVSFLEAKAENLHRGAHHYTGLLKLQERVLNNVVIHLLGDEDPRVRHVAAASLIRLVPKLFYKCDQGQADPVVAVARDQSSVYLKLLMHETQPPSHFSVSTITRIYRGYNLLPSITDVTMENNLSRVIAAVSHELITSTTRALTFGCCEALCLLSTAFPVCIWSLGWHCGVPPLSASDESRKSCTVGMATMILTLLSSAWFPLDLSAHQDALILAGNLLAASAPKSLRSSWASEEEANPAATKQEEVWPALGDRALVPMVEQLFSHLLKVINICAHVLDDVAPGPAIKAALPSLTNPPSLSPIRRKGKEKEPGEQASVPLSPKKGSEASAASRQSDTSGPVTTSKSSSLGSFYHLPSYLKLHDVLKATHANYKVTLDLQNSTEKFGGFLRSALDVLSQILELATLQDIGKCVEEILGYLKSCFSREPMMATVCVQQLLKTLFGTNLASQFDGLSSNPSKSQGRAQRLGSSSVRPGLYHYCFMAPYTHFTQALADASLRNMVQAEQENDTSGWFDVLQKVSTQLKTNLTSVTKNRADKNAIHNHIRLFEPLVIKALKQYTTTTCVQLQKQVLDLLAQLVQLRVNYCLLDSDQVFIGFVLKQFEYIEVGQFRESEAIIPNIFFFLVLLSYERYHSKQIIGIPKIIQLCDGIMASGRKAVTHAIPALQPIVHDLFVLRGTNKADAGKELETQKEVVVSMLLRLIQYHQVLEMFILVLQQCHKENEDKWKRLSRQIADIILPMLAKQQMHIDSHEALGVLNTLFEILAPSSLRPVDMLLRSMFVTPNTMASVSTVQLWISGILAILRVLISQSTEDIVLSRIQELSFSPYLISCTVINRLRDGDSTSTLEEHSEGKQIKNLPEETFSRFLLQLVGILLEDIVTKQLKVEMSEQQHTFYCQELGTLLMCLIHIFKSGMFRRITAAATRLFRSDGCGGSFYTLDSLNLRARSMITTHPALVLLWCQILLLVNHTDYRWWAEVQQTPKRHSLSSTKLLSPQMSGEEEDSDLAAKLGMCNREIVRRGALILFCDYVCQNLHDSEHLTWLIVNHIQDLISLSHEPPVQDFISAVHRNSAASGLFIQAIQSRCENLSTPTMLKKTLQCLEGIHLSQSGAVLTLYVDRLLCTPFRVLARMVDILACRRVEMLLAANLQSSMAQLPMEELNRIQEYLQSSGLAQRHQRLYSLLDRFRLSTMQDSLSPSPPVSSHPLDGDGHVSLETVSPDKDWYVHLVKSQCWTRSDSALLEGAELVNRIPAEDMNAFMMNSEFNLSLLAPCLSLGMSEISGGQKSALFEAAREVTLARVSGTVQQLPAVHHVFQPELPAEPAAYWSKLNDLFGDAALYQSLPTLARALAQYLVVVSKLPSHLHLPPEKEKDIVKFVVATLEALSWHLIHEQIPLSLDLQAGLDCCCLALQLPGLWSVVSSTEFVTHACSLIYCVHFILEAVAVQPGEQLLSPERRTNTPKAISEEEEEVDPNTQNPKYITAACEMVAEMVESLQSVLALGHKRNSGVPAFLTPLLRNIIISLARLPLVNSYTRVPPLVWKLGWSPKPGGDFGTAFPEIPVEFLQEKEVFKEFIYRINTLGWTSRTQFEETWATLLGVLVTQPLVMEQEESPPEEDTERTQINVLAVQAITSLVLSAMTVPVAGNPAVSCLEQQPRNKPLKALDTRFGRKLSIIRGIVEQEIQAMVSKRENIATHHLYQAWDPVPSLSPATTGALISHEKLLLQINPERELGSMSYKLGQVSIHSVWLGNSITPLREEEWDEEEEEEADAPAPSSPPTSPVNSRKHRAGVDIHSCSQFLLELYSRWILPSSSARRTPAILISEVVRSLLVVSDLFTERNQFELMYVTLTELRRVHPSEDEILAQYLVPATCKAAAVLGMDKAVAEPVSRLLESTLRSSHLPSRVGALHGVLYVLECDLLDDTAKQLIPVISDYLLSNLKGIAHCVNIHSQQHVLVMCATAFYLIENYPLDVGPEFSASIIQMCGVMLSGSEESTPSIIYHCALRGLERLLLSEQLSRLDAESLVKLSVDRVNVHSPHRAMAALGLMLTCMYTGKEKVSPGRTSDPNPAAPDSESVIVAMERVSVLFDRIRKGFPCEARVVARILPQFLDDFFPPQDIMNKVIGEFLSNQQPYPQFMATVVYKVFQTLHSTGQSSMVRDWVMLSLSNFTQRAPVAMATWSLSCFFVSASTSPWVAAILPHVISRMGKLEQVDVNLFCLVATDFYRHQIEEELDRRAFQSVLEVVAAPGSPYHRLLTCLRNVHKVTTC", "test": "Inhibition of Huntingtin protein (unknown origin) incubated for overnight in presence of MW1/MAB2166 monoclonal antibody by MSD assay"}
{"smiles": "Cc1cn2nc(-c3cn4cc(C5CCNCC5)nc4s3)cc(C)c2n1", "pIC50": "≥ 7.00"}
{"smiles": "CN(c1nc2sc(-c3ncc(-c4cn[nH]c4)nn3)nc2s1)C1CC(C)(C)NC(C)(C)C1", "pIC50": "≥ 7.00"}
{"smiles": "Cn1cc2cc(-c3nn4cc(C5CCNCC5)nc4s3)cc(C#N)c2n1", "pIC50": "≥ 7.00"}
{"smiles": "CN(c1nc2sc(-c3cnc(-c4cn[nH]c4)c4[nH]ccc34)nc2s1)C1CCNCC1", "pIC50": "≥ 7.00"}
{"smiles": "C[C@H]1C[C@H](Oc2nc3sc(-c4ncc(-c5nnn(C)n5)c5cc[nH]c45)nc3s2)CCN1", "pIC50": "≥ 7.00"}
{"smiles": "CN(c1nc2sc(-c3ncc(-c4cn[nH]c4)cc3O)nc2s1)C1CC(C)(C)NC(C)(C)C1", "pIC50": "≥ 7.00"}
